Experimental data: patent US10329309B2, “3-(3H-imidazo[4,5-B]pyridin-2-yl)-1H-pyrazolo[4,3-B]pyridines and therapeutic uses thereof” (Samumed, LLC, priority 2015, dated 2019)

What was measured:
[1] = system: primary human mesenchymal stem cells (hMSCs); experiment: Induction of chondrogenesis in primary human mesenchymal stem cells (nodule imaging, Rhodamine B/Nile Red); assay type: cell-based; conditions: hMSC chondrogenesis; for Emax: TGF-β3 as positive control, read-out: Max. Activity as % TGF-β3 activity; for EC50: concentration required to induce 50% levels of chondrogenesis vs TGF-β3, read-out: Conc (nM) of 50% TGF-β3 activity
Procedure: Representative compounds were screened using primary human mesenchymal stem cells (hMSCs) to determine their ability to induce chondrogenesis (process by which cartilage is developed).
Primary human mesenchymal stem cells (hMSCs) were purchased from Lonza (Walkersville, Md.) and expanded in Mesenchymal Stem Cell Growth Media (Lonza). Cells between passage 3 and 6 were used for the experiments.
Each compound was dissolved in DMSO as a 10 mM stock and used to prepare compound source plates. For the 96 well assay, serial dilution (1:3, 6-point dose-response curves from 2700 nM to 10 nM) and compound transfer was performed using the ECHO 550 (Labcyte, Sunnyvale, Calif.) into 96-well clear bottom assay plates (Greiner Bio-One) with appropriate DMSO backfill for a final DMSO concentration of 0.03%. hMSCs were plated at 20,000 cells/well in 250 μL/well Incomplete Chondrogenic Induction Medium (Lonza; DMEM, dexamethasone, ascorbate, insulin-transferrin-selenium [ITS supplement], gentamycin-amphotericin [GA-1000], sodium pyruvate, proline and L-glutamine). TGF-−3 (10 ng/mL) was used as a positive control for differentiation while negative control wells were treated with 75 nL DMSO for normalization and calculating EC50 values. For the 384 well assay, serial dilution (1:3, 8-point dose-response curves from 5000 nM to 2.2 nM) and compound transfer was performed using the ECHO 550 (Labcyte, Sunnyvale, Calif.) into 384-well clear bottom assay plates (Greiner Bio-One) with appropriate DMSO backfill for a final DMSO concentration of 0.03%. hMSCs were plated at 8,000 cells/well in 80 μL/well Incomplete Chondrogenic Induction Medium (Lonza; DMEM, dexamethasone, ascorbate, insulin-transferrin-selenium [ITS supplement], gentamycin-amphotericin [GA-1000], sodium pyruvate, proline and L-glutamine). TGF-β3 (10 ng/mL) was used as a positive control for differentiation while negative control wells were treated with 25 nL DMSO for normalization and calculating EC50 values. Cells were incubated at 37° C. and 5% CO2 for 6 days. To image chondrogenic nodules, the cells were fixed using 4% formaldehyde (Electron Microscopy Sciences), and stained with 2 μg/mL Rhodamine B (Sigma-Aldrich) and 20 μM Nile Red (Sigma-Aldrich) [Johnson K., et. al, A Stem Cell-Based Approach to Cartilage Repair, Science, (2012), 336(6082), 717-721]. The nodules imaged (25 images per well for 96 well plates and 9 images per well for 384 well plates at 10× magnification) by excitation at 531 nm and emission at 625 nm and quantified using the CellInsight CX5 (Thermo Scientific). Area of nodules in each well was normalized to the average of 3 DMSO treated wells on the same plate using Excel (Microsoft Inc.). The normalized averages (fold change over DMSO) of 2 or 3 replicate wells for each compound concentration were calculated. Due to solubility limitations of some of the compounds, curve fitting was incomplete leading to inaccurate EC50 determinations.
Using TGF-β3 as a positive control, the concentration of representative compounds required to induce 50% levels of chondrogenesis is reported. In addition, the maximum activity of each compound and the respective dose that each compound reached maximum chondrogenesis activity is reported.

[2] = system: IL-6 (THP-1 cells); experiment: Inhibition of IL-6 in LPS-stimulated THP-1 monocytes (HTRF); assay type: cell-based; conditions: Homo sapiens; for EC50: LPS 500 ng/mL, IL-6 by HTRF; for inhibition at 10 µM: LPS stimulated, IL-6, at 10 μM, read-out: percent inhibition at 10 μM (given for EC50 of >10 μM)
Procedure, shortened: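 THP-1 cells, serum-starved in 1% FBS for 24 h, were pre-incubated 2 h with compound (10-point, 1:3 from 10 μM, 0.1% DMSO), then stimulated with 500 ng/mL LPS for 22 h at 37 °C. IL-6 was quantified by HTRF 665/620 ratio. EC50 was fitted from DMSO-normalized data; above 10 μM, % inhibition at 10 μM is given.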

Row | SMILES | EC50 [2] [nM] | EC50 [1] [nM] | Emax [1] [%] | inhibition at 10 µM [2] [%]
1 | CCC(=O)Nc1cncc(-c2ccc3[nH]nc(-c4nc5c(N6CCCCC6)ccnc5[nH]4)c3n2)c1 [Compound 169, N-(5-(3-(7-(piperidin-1-yl)-3H-imidazo[4,5-b]pyridin-2-yl)-1H-pyrazolo[4,3-b]pyridin-5-yl)pyridin-3-yl)propionamide] | > 10000 | – | 38 | 12.7
2 | CCCCC(=O)Nc1cncc(-c2ccc3[nH]nc(-c4nc5c(-c6cc(F)cc(NCCN(C)C)c6)ccnc5[nH]4)c3n2)c1 [Compound 467, N-(5-(3-(7-(3-((2-(dimethylamino)ethyl)amino)-5-fluorophenyl)-3H-imidazo[4,5-b]pyridin-2-yl)-1H-pyrazolo[4,3-b]pyridin-5-yl)pyridin-3-yl)pentanamide] | > 10000 | 10 | 71 | 23
3 | Cc1cn(-c2ccnc3[nH]c(-c4n[nH]c5ccc(-c6cncc(NC(=O)CC(C)C)c6)nc45)nc23)cn1 [Compound 198, 3-methyl-N-(5-(3-(7-(4-methyl-1H-imidazol-1-yl)-3H-imidazo[4,5-b]pyridin-2-yl)-1H-pyrazolo[4,3-b]pyridin-5-yl)pyridin-3-yl)butanamide] | > 10000 | – | 27 | 29.1
4 | Cc1cn(-c2ccnc3[nH]c(-c4n[nH]c5ccc(-c6cncc(NC(=O)C7CCC7)c6)nc45)nc23)cn1 [Compound 217, N-(5-(3-(7-(4-methyl-1H-imidazol-1-yl)-3H-imidazo[4,5-b]pyridin-2-yl)-1H-pyrazolo[4,3-b]pyridin-5-yl)pyridin-3-yl)cyclobutanecarboxamide] | > 10000 | 300 | 69 | 35.6
5 | c1cncc(-c2ccc3[nH]nc(-c4nc5cccnc5[nH]4)c3n2)c1 [Compound 256, 3-(3H-imidazo[4,5-b]pyridin-2-yl)-5-(pyridin-3-yl)-1H-pyrazolo[4,3-b]pyridine] | > 10000 | 10 | 74 | 24.4
6 | CCNCc1cncc(-c2ccc3[nH]nc(-c4nc5c(-c6cc(F)cc(NCCN(C)C)c6)ccnc5[nH]4)c3n2)c1 [Compound 454, N^1-(3-(2-(5-(5-((ethylamino)methyl)pyridin-3-yl)-1H-pyrazolo[4,3-b]pyridin-3-yl)-3H-imidazo[4,5-b]pyridin-7-yl)-5-fluorophenyl)-N^2,N^2-dimethylethane-1,2-diamine] | > 10000 | 21 | 149 | 36.4
7 | Fc1cccc(-c2ccnc3[nH]c(-c4n[nH]c5ccc(-c6cncc(OC7CCNCC7)c6)nc45)nc23)c1 [Compound 512, 3-(7-(3-fluorophenyl)-3H-imidazo[4,5-b]pyridin-2-yl)-5-(5-(piperidin-4-yloxy)pyridin-3-yl)-1H-pyrazolo[4,3-b]pyridine] | > 10000 | 2 | 93 | 35.7
8 | Cc1ccncc1-c1ccc2[nH]nc(-c3nc4c(-c5ccncc5)ccnc4[nH]3)c2n1 [Compound 117, 5-(4-methylpyridin-3-yl)-3-(7-(pyridin-4-yl)-3H-imidazo[4,5-b]pyridin-2-yl)-1H-pyrazolo[4,3-b]pyridine] | > 10000 | 100 | 147 | 18.6
9 | CCC(=O)Nc1cncc(-c2ccc3[nH]nc(-c4nc5c(-c6ccsc6)ccnc5[nH]4)c3n2)c1 [Compound 281, N-(5-(3-(7-(thiophen-3-yl)-3H-imidazo[4,5-b]pyridin-2-yl)-1H-pyrazolo[4,3-b]pyridin-5-yl)pyridin-3-yl)propionamide] | > 10000 | – | 38 | 25

Now from value to compound, other results behind:

Row | EC50 [2] [nM] | EC50 [1] [nM] | SMILES | Emax [1] [%] | inhibition at 10 µM [2] [%]
10 | 8300 | – | CN(C)Cc1cncc(-c2ccc3[nH]nc(-c4nc5c(N6CCCCC6)ccnc5[nH]4)c3n2)c1 [Compound 181, N,N-dimethyl-1-(5-(3-(7-(piperidin-1-yl)-3H-imidazo[4,5-b]pyridin-2-yl)-1H-pyrazolo[4,3-b]pyridin-5-yl)pyridin-3-yl)methanamine] | 44 | –
11 | > 10000 | – | CCNCc1cncc(-c2ccc3[nH]nc(-c4nc5c(-c6ccccn6)ccnc5[nH]4)c3n2)c1 [Compound 146, N-((5-(3-(7-(pyridin-2-yl)-3H-imidazo[4,5-b]pyridin-2-yl)-1H-pyrazolo[4,3-b]pyridin-5-yl)pyridin-3-yl)methyl)ethanamine] | 28 | 4.5
12 | > 10000 | 30 | Fc1ccc(-c2ccnc3[nH]c(-c4n[nH]c5ccc(-c6cncnc6)nc45)nc23)cc1 [Compound 55, 3-(7-(4-Fluorophenyl)-3H-imidazo[4,5-b]pyridin-2-yl)-5-(pyrimidin-5-yl)-1H-pyrazolo[4,3-b]pyridine] | 99 | 43.9
13 | 151 | 10 | CC(C)C(=O)Nc1cncc(-c2ccc3[nH]nc(-c4nc5c(-c6ccccc6F)ccnc5[nH]4)c3n2)c1 [Compound 65, N-(5-(3-(7-(2-fluorophenyl)-3H-imidazo[4,5-b]pyridin-2-yl)-1H-pyrazolo [4,3-b]pyridin-5-yl)pyridin-3-yl)isobutyramide] | 197 | –
14 | > 10000 | – | CCCC(=O)Nc1cncc(-c2ccc3[nH]nc(-c4nc5c(-c6ccncc6)ccnc5[nH]4)c3n2)c1 [Compound 129, N-(5-(3-(7-(pyridin-4-yl)-3H-imidazo[4,5-b]pyridin-2-yl)-1H-pyrazolo[4,3-b]pyridin-5-yl)pyridin-3-yl)butyramide] | 50 | 14.9
15 | > 10000 | – | CCC(=O)Nc1cncc(-c2ccc3[nH]nc(-c4nc5c(-c6cccc(F)c6)ccnc5[nH]4)c3n2)c1 [Compound 1, N-(5-(3-(7-(3-fluorophenyl)-3H-imidazo[4,5-b]pyridin-2-yl)-1H-pyrazolo [4,3-b]pyridin-5-yl)pyridin-3-yl)propionamide] | 29 | 3.5
16 | 4 | 900 | CN(C)c1cncc(-c2ccc3[nH]nc(-c4nc5c(-c6cccs6)ccnc5[nH]4)c3n2)c1 [Compound 343, N,N-dimethyl-5-(3-(7-(thiophen-2-yl)-3H-imidazo[4,5-b]pyridin-2-yl)-1H-pyrazolo [4,3-b]pyridin-5-yl)pyridin-3-amine] | 57 | –
17 | 985 | 900 | Fc1cccc(-c2ccnc3[nH]c(-c4n[nH]c5ccc(-c6cncc(CN7CCC(F)(F)C7)c6)nc45)nc23)c1 [Compound 26, 5-(5-((3,3-Difluoropyrrolidin-1-yl)methyl)pyridin-3-yl)-3-(7-(3-fluorophenyl)-3H-imidazo[4,5-b]pyridin-2-yl)-1H-pyrazolo[4,3-b]pyridine] | 247 | –
18 | 984 | – | CC(C)C(=O)Nc1cncc(-c2ccc3[nH]nc(-c4nc5c(-c6cccnc6)ccnc5[nH]4)c3n2)c1 [Compound 93, N-(5-(3-(7-(pyridin-3-yl)-3H-imidazo[4,5-b]pyridin-2-yl)-1H-pyrazolo[4,3-b]pyridin-5-yl)pyridin-3-yl)isobutyramide] | 26 | –
19 | 3480 | 10 | Fc1cccc(-c2ccnc3[nH]c(-c4n[nH]c5ccc(C6CCNCC6)nc45)nc23)c1 [Compound 505, 3-(7-(3-fluorophenyl)-3H-imidazo[4,5-b]pyridin-2-yl)-5-(piperidin-4-yl)-1H-pyrazolo[4,3-b]pyridine] | 51 | –
